In patent US10934263B2, “Charged ion channel blockers and methods for use” (Nocion Therapeutics, Inc., priority 2019, dated 2021):

How the values were obtained:
[1] = biological target: T1, NaV1.7 (Homo sapiens, UniProt Q15858); experiment: Automated patch clamp (Qube 384), external block of NaV1.7 in HEK293 cells; type: cell-based; settings: compound in external solution, read-out: Nav1.7 Extracellular Inhibition (IC50)
T1 construct: expressed in transfected cells; tetracycline-inducible, kept under hygromycin and blasticidin
Method: (§1) NaV1.7 was expressed in HEK293 cells upon induction with tetracycline. Cells were cultured in DMEM containing 10% dialyzed Fetal Bovine Serum (VWR, Radnor, Pa.), 1% Glutamax (VWR, Radnor, Pa.), 1% Penicillin-Streptomycin (VWR, Radnor, Pa.), 100 mg/L Hygromycin (Thermo Fisher Scientific, Waltham, Mass. and 5 mg/L Blasticidin (Alfa Aesar, Haverhill, Mass.). Cells were grown and maintained at 37° C. in a humidified environment containing 10% CO2 in air. Cells were detached from the culture flask for passage and harvested using 0.05% Trypsin-EDTA (Thermo Fisher Scientific, Waltham, Mass.). To induce NaV1.7, cells were induced with tetracycline (0.1-1 μg/mL, IBI Scientific, Peosta, Iowa) the day before recording.
(§2) Before experiments, cells were washed with DPBS (VWR, Radnor, Pa.), digested with Detachin (VWR Radnor, Pa.) and then triturated 10 times in CHO Serum-Free Media (VWR Radnor, Pa.) to resuspend the cells and to break apart cell aggregates. Cells were counted and the final concentration was set at 2-5 million cells per mL.
(§3) The intracellular solution contained the following: 140 mM CsF, 1 mM/5 mM EGTA/CsOH, 10 mM HEPES, 10 mM NaCl, adjusted to pH 7.3 with CsOH, and osmolality to 320 with sucrose. The external solution contained the following: 145 mM NaCl, 4 mM KCl, 1 mM MgCl2, 2 mM CaCl2, 10 mM HEPES, 10 mM Glucose, adjusted to pH 7.4 with CsOH and osmolality to 305 with sucrose. All chemicals are from Sigma-Aldrich, St. Louis, Mo. In order to test the degree of internal block by test compounds, the compounds were dissolved in internal solution at the indicated test concentration. […] In order to test the degree of external block by test compounds the compounds were dissolved in external solution at the indicated test concentration.
(§4) Automated Patch Clamps were performed on Qube 384 (Sophion Bioscience, Woburn Mass.) with multihole Qchips at a temperature setting of 22 degrees. The whole cells configuration was formed with default Qube seal and break-in parameter. The membrane potential was held at −100 mV before the voltage protocol began. Two voltage protocols were followed.
(§5) Step 1: Cells were held at −100 mV with a depolarized pulse to −20 mV for 10 ms, the interval was set at 5 s. Currents were corrected by default leak subtraction from every pulse. The duration was set at 5 mins.
(§6) Step 2: Cells were held at −100 mV with a depolarized pulse to −20 mV for 10 ms. The frequency was 5 Hz. Currents were corrected by leak subtraction calculated before step 2. The duration was set at 4 mins.
After Step 2, the external solution was changed with solutions containing test compounds. Qchips were held at −100 mV without pulsing. The total solution switching time was 8 minutes. After the external solution exchange, cells were recorded using the same procedure as step 2 for 10 minutes.
Data analysis was performed by Sophion Analyzer. Data were corrected with control cells (Non-Drug). The IC50 data were plotted with DR-plots/Hill function (a dose-response plot with a Hill fit).

[2] = biological target: T1, NaV1.7; experiment: Automated patch clamp (Qube 384), internal block of NaV1.7 in HEK293 cells; type: cell-based; settings: compound in internal solution, read-out: Nav1.7 Intracellular Inhibition (IC50)
Method: as §1, §2, §3, §4, §5, §6
After Step 2, the Qchip was removed from the recording chamber. The internal solution was changed with solutions containing test compounds. Qchips were held at −100 mV without pulsing after being replaced in the recording chamber. The total solution switching time was 8 minutes. After the internal solution exchange, Cells were recorded and step 2 for repeated for 10 minutes.
Data analysis was performed by Sophion Analyzer. Cells were filtered with minimum 50 MOhm seal resistance and minimum 5 nA starting current. The rundown of the currents was corrected with control cells (Non-Drug). The remaining was calculated by averaging last 3 points in the end of experiments. The base line was calculated as the average of last 3 points of Step 2. IC50 curves were plotted with DR-plots/Hill function (a dose-response plot with a Hill fit). Data analysis was performed by Sophion Analyzer.

[3] = PAMPA membrane permeability assay; type: in vitro ADME; settings: PAMPA permeability coefficient, GIT lipid, buffer pH 7.4, 4 hours incubation
Method: The PAMPA assay (pION, Inc., Woburn Mass.) was used to determine the ability of compounds of the invention to cross an artificial lipid membrane by passive diffusion. Test compounds were dissolved in DMSO (10 mM) and diluted 200-fold in buffer (pION Inc., pH 7.4) to provide 50 uM stock solutions. Buffer (150 μL) was added to a UV blank plate and stock solutions (150 μL) were transferred to a UV reference plate. The blank and reference spectrum were read using a spectrophotometer. Stock solutions (200 μL) were added to the donor plate of the PAMPA sandwich plate and an accept plate painted with GIT lipid (pION Inc, 5 μL) was placed on top. Buffer (200 μL) was added to the acceptor plate and the PAMPA sandwich plate was incubated for 4 hours. Aliquots (150 μL) from the acceptor plate were added to a UV plate and read as acceptor spectrum. Aliquots (150 μL) of the donor solutions were added to a UV analysis plate and read as donor spectrum. The permeability coefficient of test compounds was calculated using PAMPA Explorer™ software (version 3.5.0.4) based on the AUC of the reference plate, the donor plate, and the acceptor plate.

[4] = biological target: T1, NaV1.7; experiment: Whole cell patch clamp, internal block of NaV1.7 current (compound in internal solution); type: cell-based; settings: compound applied internally, manual patch clamp, read-out: Nav1.7 Intracellular Inhibition
Method: Representative compounds of the invention were synthesized according to the described methods and tested for the ability to inhibit voltage-gated sodium channels.
as §1, with “expressed” for “expressed in HEK293 cells”, “recording and plated onto 24-well plates. Cells were washed with DPBS (VWR, Radnor, Pa.), trypsinized and then triturated five times in 10 mL of growth media to break apart cell aggregates. For one 24-well plate, 2 mL of cell suspension was mixed with 23 mL of fresh growth media and 0.1-1 μg/mL tetracycline added. 1 ml of mixed media with cells was then added to each well of a 24-well plate, with a 12 mm coverslip already placed in the bottom of the well. Cells were then incubated in 37° C. and 10% CO2 overnight.” for “recording.”
The intracellular solution contained the following (in mM) CsCl 135, NaCl 10, EGTA 10, HEPES 10, MgCl2 2, adjusted to pH 7.2 with CsOH. The external solution was a normal Ringer solution containing (in mM) NaCl 155, HEPES 10, glucose 10, KCl 3.5, CaCl2 1.5, MgCl2 1 adjusted to pH 7.4 with NaOH. CsCl is from Alfa Aesar, Haverhill, Mass. All other chemicals are from Sigma-Aldrich, St. Louis, Mo. In order to test the degree of internal block by test compounds the compounds were dissolved in internal solution at the indicated test concentration. […] In order to test the degree of external block by test compounds the compounds were dissolved in external solution at the indicated test concentration.
18-24 hours after cells were induced with tetracycline, coverslips were placed into a chamber filled with Normal Ringer solution at room temperature and the chamber placed on a microscope. Pipettes were pulled from borosilicate glass on a P97 puller (Sutter Instrument, Novato, Calif.) and polished with a MF-830 Microforge (Narishige International USA, Inc, Amityville, N.Y.) to have a resistance of 1.5-2.5 MΩ when filled with CsCl internal solution at room temperature. Healthy cells (those that are round and translucent with no visible blemishes) were chosen for seal formation. A seal was formed between the pipette and the cell, and a brief pulse of suction was used to “break in” and establish the whole-cell configuration. The membrane potential was held at −100 mV before the voltage protocol began. Only cells with series resistance between 1.5-5 MΩ were retained for analysis. The voltage protocol was as follows: Cells were held at −100 mV for 12 ms followed by a hyperpolarizing step to −105 mV for 12 ms to monitor the leak. Cells were then stepped back to −100 mV for 40 ms. Cells were then depolarized to −20 mV for 10 ms and then returned to −100 mV for 26 ms.
Once the recording was started, the voltage protocol was run at 30 second intervals for 5 minutes to get a stable baseline. This was followed by four 30-second periods of 5 Hz stimulation of the same voltage protocol separated by 1 minute of rest which was then followed by 0.33 Hz stimulation after the last train. Currents were recorded using PatchMaster software with Heka EPC10 (HEKA Electronics, Lambrecht, Germany). Only cells with inward current amplitudes at −20 mV between 400 pA and 4 nA were accepted. In addition, cells having leak currents greater than 10% of their current amplitudes were discarded. […]

T1 sequence (Q15858 whole entry): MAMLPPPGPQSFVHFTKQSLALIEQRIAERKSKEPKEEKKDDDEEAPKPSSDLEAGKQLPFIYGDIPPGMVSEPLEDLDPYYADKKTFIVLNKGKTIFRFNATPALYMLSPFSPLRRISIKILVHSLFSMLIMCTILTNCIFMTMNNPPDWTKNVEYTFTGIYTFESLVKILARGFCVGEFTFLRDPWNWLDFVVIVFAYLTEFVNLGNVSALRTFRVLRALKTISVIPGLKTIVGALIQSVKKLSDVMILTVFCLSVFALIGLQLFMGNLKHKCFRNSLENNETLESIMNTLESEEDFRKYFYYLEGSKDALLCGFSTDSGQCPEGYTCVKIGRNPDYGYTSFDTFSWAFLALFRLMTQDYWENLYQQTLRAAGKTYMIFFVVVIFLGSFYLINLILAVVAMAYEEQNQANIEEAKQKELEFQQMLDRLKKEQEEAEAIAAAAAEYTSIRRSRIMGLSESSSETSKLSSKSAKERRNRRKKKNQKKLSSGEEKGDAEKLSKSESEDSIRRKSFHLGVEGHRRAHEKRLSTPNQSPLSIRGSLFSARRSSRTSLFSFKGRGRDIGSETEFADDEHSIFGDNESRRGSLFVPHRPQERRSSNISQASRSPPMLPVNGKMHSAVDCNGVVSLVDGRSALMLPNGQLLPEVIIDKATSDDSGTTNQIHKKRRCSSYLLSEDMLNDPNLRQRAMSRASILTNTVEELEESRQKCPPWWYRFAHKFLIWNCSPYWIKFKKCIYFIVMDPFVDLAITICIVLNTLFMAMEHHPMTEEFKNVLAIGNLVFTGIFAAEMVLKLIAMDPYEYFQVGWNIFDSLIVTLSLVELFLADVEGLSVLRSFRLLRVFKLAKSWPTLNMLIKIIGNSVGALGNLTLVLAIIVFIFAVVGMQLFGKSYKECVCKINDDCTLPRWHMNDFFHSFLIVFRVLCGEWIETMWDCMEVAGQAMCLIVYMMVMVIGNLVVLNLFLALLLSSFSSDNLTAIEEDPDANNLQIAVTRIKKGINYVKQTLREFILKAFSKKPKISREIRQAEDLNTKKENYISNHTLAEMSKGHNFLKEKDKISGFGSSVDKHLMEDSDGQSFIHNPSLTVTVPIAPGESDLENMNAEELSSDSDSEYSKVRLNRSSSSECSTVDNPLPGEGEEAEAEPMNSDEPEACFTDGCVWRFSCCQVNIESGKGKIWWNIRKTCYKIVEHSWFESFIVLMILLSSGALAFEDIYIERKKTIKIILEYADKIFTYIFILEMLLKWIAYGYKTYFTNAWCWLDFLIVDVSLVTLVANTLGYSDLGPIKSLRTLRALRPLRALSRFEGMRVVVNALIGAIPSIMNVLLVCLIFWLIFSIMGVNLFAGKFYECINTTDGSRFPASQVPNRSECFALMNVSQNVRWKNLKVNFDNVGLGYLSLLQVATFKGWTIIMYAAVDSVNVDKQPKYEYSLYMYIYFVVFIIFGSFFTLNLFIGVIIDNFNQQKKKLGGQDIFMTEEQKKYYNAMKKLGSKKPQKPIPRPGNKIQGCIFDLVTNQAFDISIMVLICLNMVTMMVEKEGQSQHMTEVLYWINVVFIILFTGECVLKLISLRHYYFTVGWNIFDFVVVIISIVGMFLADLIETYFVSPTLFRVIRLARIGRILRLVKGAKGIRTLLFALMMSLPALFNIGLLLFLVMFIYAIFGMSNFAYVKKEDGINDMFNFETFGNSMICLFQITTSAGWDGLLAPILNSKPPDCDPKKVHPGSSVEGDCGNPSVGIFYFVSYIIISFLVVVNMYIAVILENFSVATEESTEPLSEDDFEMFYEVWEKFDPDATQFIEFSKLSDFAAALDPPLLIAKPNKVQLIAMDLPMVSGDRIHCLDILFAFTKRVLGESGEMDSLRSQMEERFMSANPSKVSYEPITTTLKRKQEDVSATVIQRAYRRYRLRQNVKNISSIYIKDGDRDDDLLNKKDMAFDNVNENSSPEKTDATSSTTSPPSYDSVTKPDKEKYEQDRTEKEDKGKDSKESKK

| SMILES | IC50 [1] | IC50 [2] | PAMPA (10^−6 cm/s) [3] | inhibition at 32 µM ([4]; % inhibition at 32 μM) | inhibition at 10 µM [4] |
| --- | --- | --- | --- | --- | --- |
| Cc1cccc(C)c1NC(=O)C[n+]1c(C)cccc1C [Compound 6] | > 100 µM | 1 to 3 µM | – | – | – |
| Cc1cccc(C)c1NC(=O)C[n+]1cccc(-c2ccccc2)c1 [Compound 12] | 10 to 30 µM | 1 to 3 µM | – | – | – |
| Cc1cccc(C)c1NC(=O)C[n+]1ccccc1-c1ccccc1 [Compound 16] | > 100 µM | 1 to 3 µM | – | – | – |
| Cc1cccc(C)c1NC(=O)C[n+]1cccc(C2CCCC2)c1 [Compound 21] | < 10 µM | < 1 µM | – | – | – |
| Cc1cccc(C)c1NC(=O)C[n+]1cccc(C2CC2)c1 [Compound 22] | 30 to 100 µM | 3 to 10 µM | – | – | – |
| Cc1cccc(C)c1NC(=O)C[n+]1c(C)ccc(-c2ccccc2)c1C [Compound 23] | < 10 µM | < 1 µM | – | – | – |
| Cc1cccc(C)c1NC(=O)C[n+]1cc(-c2ccccc2)n(C)c1.[Br-] [Compound 24A] | – | – | + (<0.1 10^−6 cm/s) | 70 to 95% | – |
| Cc1cccc(C)c1NC(=O)C[n+]1cc(-c2ccccc2)n(C)c1 [Compound 24] | > 100 µM | 3 to 10 µM | – | – | – |
| Cc1cccc(C)c1NC(=O)C[n+]1cccn1CC(C)C [Compound 27] | > 100 µM | 1 to 3 µM | – | – | – |
| Cc1cccc(C)c1NC(=O)C[n+]1cccn1C1CCCCC1 [Compound 28] | 30 to 100 µM | < 1 µM | – | – | – |
| Cc1cccc(C)c1NC(=O)C[n+]1cccn1-c1ccccc1 [Compound 29] | > 100 µM | 3 to 10 µM | – | – | – |
| Cc1cccc(C)c1NC(=O)C[n+]1ccn(C(C)(C)C)c1 [Compound 36] | – | – | + (<0.1 10^−6 cm/s) | – | 70 to 95% |
| Cc1cccc(C)c1NC(=O)C[n+]1cccc(C(=O)N(C)C)c1 [Compound 41] | – | – | + (<0.1 10^−6 cm/s) | – | 40 to 70% |
| CC(=O)Nc1ccc[n+](CC(=O)Nc2c(C)cccc2C)c1 [Compound 48] | – | – | + (<0.1 10^−6 cm/s) | – | > 95% |
| Cc1cccc(C)c1NC(=O)C[n+]1cccc(-c2nn[nH]n2)c1 [Compound 53] | – | 10 to 30 µM | + (<0.1 10^−6 cm/s) | – | < 40% |
| Cc1cccc(C)c1NC(=O)C[n+]1ccn(C(C)C)c1 [Compound 58] | – | – | + (<0.1 10^−6 cm/s) | – | 40 to 70% |
| Cc1cccc(C)c1NC(=O)C[n+]1cc(CO)n(C(C)C)c1 [Compound 59] | – | 10 to 30 µM | ++ (0.1-2.0 10^−6 cm/s) | – | 70 to 95% |
| CCOC(=O)Cn1cc[n+](CC(=O)Nc2c(C)cccc2C)c1 [Compound 60] | – | – | +++ (2.0-10.010^−6 cm/s) | – | 40 to 70% |
| CCNC(=O)Cn1cc[n+](CC(=O)Nc2c(C)cccc2C)c1 [Compound 62] | – | – | + (<0.1 10^−6 cm/s) | – | < 40% |
| CCCCCCn1cc[n+](CC(=O)Nc2c(C)cccc2C)c1 [Compound 63] | – | – | + (<0.1 10^−6 cm/s) | – | 40 to 70% |
| Cc1cccc(C)c1NC(=O)C[n+]1cccc(C(=O)OC2CCCC2)c1 [Compound 105] | – | 1 to 3 µM | – | – | – |
| Cc1cccc(C)c1NC(=O)Cn1cc[n+](CC(=O)Nc2c(C)cccc2C)c1 [Compound 110] | – | 10 to 30 µM | ++ (0.1-2.0 10^−6 cm/s) | – | 70 to 95% |
